Read-outs that look alike come from different tables or passages of the source. No end group written: not given here.
Tests used:
Experiment in all cases: biochemical
DR1 (DRB1*0101) = DR1 (DRB1*0101) (Homo sapiens, UniProt P01903+P01911, A100R/D57E/F55L/F60I/F76Y/I96L/L162R/M171V/P40L/Q125E/R42F/V115G/Y59C); format: binding
DRB1*0901 = DRB1*0901 (Homo sapiens, UniProt P01903+P01911, A100R/A103E/D57H/D86V/F55Y/F60I/F76Y/I96F/K127E/L162R/M171V/P40D/Q125H/Q99R/R33Q/R42F/S133A/S66N/T210M/V115G/W38K/Y107V/Y59G/Y89S); format: binding
DR7 (DRB1*0701) = DR7 (DRB1*0701) (Homo sapiens, UniProt P01903+P01911, A100R/A102G/A103Q/D57E/D86V/E43K/F76Y/K127E/L162R/M171V/P40G/Q125H/Q99D/R33Q/R42Y/R54Q/S133A/S66F/T210M/V115G/Y107V/Y59L/Y89S); format: binding
DR4w4 (DRB1*0401) = DR4w4 (DRB1*0401) (Homo sapiens, UniProt P01903+P01911, A100K/A169T/F76Y/I96L/K127E/L162R/M171V/N62H/P40V/Q125Y/R42H/S133A/S149N/S66Y/V115G/V209L/W38E); format: binding
DRB1*0405 = DRB1*0405 (Homo sapiens, UniProt P01903+P01911, A100R/A169T/D86S/F76Y/I96L/K127E/L162R/M171V/N62H/P40V/Q125Y/R42H/S133A/S149N/S66Y/V115G/V209L/W38E); format: binding
DRB1*1501 = DRB1*1501 (Homo sapiens, UniProt P01903+P01911); format: binding
DRB5*0101 = DRB5*0101 (Homo sapiens, UniProt P01903+Q30154); conditions: Binding affinity DRB5 *0101
DRB1*1101 = DRB1*1101 (Homo sapiens, UniProt P01903+P01911, A100R/A169T/A87E/I96F/K41T/L162R/M171V/P40S/Q125H/Q178H/Q39Y/Q99D/R42S/S66Y/T262R/V115G/W38E)
DRB1*1302 = DRB1*1302 (Homo sapiens, UniProt P01903+P01911, A100E/A169T/K41T/L162R/M171V/P40S/Q125H/Q178H/Q39Y/Q99D/R42S/S66N/T262R/V115G/W38E/Y61H); format: binding
DRB1*0802 = DRB1*0802 (Homo sapiens, UniProt P01903+P01911, A100R/A103L/A169T/F76Y/H45Y/I96F/K41T/L162R/M171V/P40S/Q125H/Q178H/Q39Y/Q99D/R218S/R42G/S66Y/V115G/W38E); format: binding
DRB4*0101 = DRB4*0101 (Homo sapiens, UniProt P01903+P13762, G164S); format: binding

Sequence of DRB1*1101 (P01903 26-254 limits assumed, other chains not shown): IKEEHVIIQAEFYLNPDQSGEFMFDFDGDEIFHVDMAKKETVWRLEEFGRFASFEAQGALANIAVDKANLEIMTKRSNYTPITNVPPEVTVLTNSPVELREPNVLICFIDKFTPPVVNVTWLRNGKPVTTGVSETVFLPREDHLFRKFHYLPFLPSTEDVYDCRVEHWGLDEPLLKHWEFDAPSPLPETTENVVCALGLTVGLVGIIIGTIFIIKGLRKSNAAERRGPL
Sequence of DRB1*1302 (P01903 26-254 limits assumed, other chains not shown): as above

| Compound | IC50 (DR1 (DRB1*0101)) [µM] | IC50 (DRB1*0901) [µM] | IC50 (DR7 (DRB1*0701)) [µM] | IC50 (DR4w4 (DRB1*0401)) [µM] | IC50 (DRB1*0405) [µM] | IC50 (DRB1*1501) [µM] | IC50 (DRB5*0101) [µM] | IC50 (DRB1*1101; Binding affinity DRB1 *1101) [µM] | IC50 (DRB1*1302) [µM] | IC50 (DRB1*0802) [µM] | IC50 (DRB4*0101) [µM] | IC50 (DRB1*1101) [µM] |
| --- | --- | --- | --- | --- | --- | --- | --- | --- | --- | --- | --- | --- |
| NTEVETQQMVQVEEQ [Peptide 89.0039] | 2.63 | > 20 | > 20 | > 20 | > 20 | > 20 | > 20 | > 20 | > 20 | – | – | – |
| NCILLYGPANTGKSY [Peptide 89.0087] | 0.11 | > 20 | > 20 | 0.28 | 7.34 | 0.066 | 6.46 | 8.05 | – | 13.5 | – | – |
| TPEWIDRLTVLQHSF [Peptide 89.0069] | 14.6 | > 20 | 5.21 | – | 0.987 | 3.83 | > 20 | – | 8.86 | 0.275 | 0.122 | – |
| DWCIIGMGVTPSVAE [Peptide 89.0096] | > 20 | > 20 | 2.64 | – | > 20 | 8.31 | > 20 | > 20 | 4.34 | > 20 | 0.19 | – |
| YLVCGERGFFYTKPT [Peptide 9000.0079] | – | – | – | > 20.5 | > 30.1 | – | – | – | – | > 54.4 | – | – |
| CSCC[C@H](NC(=O)[C@H](Cc1ccc(O)cc1)NC(=O)[C@H](Cc1ccc(O)cc1)NC(=O)[C@@H](NC(=O)[C@H](CO)NC(=O)[C@H](CC(=O)O)NC(=O)[C@H](Cc1c[nH]c2ccccc12)NC(=O)[C@H](C)NC(=O)[C@@H](N)C(C)C)C(C)C)C(=O)N[C@H](C(=O)N[C@@H](CC(=O)O)C(=O)N[C@@H](C)C(=O)NCC(=O)N[C@H](C(=O)N[C@@H](Cc1c[nH]c2ccccc12)C(=O)O)[C@@H](C)O)[C@@H](C)O [Peptide 1601.10] | 7.86 | 0.587 | – | 1.66 | 7.43 | > 20 | > 20 | > 20 | > 20 | > 20 | – | – |
| CC(C)C[C@H](NC(=O)[C@H](CC(C)C)NC(=O)[C@@H]1CCCN1C(=O)[C@@H](N)CC(N)=O)C(=O)NCC(=O)N[C@@H](C)C(=O)N[C@@H](C)C(=O)N[C@H](C(=O)N1CCC[C@H]1C(=O)N[C@H](C(=O)NCC(=O)N[C@@H](CC(N)=O)C(=O)N[C@@H](CC(N)=O)C(=O)N[C@@H](CCCCN)C(=O)N[C@@H](CCCNC(=N)N)C(=O)O)[C@@H](C)O)[C@@H](C)O [Peptide 89.0165] | 0.655 | 9.38 | > 20 | 1.24 | 8.25 | – | > 20 | > 20 | > 20 | > 20 | – | – |
| PMAVSKAKACQAIEL [Peptide 90.0013] | 0.089 | – | – | – | > 20 | 16.6 | 12.8 | 1.55 | 0.535 | – | 1.59 | – |
| LIRMECALLYTAKQM [Peptide 89.0179] | 0.998 | > 20 | 7.47 | – | > 20 | > 20 | > 20 | > 20 | > 20 | > 20 | > 20 | – |
| MVQVEEQQTTLSCNG [Peptide 89.0040] | – | > 20 | > 20 | 0.34 | > 20 | > 20 | > 20 | > 20 | > 20 | > 20 | – | – |
| NGWFYVEAVVEKKTG [Peptide 90.0029] | 0.219 | 0.955 | 0.307 | 0.031 | 0.027 | > 20 | – | 2.74 | 5.49 | 6.4 | – | – |
| TNCMLIQPPKLRSTA [89,0046] | 0.017 | – | – | 1.86 | 3.22 | – | – | – | – | – | – | – |
| GQVIVFPESVFSSDE [Peptide 89.0173] | – | > 20 | > 20 | – | > 20 | > 20 | > 20 | > 20 | > 20 | 2.12 | > 20 | – |
| DSDIAYYYAQLADSN [Peptide 89.0071] | 0.198 | 2.34 | 4.13 | – | 6.03 | 0.013 | > 20 | 9.14 | > 20 | – | 0.978 | – |
| FLSYFKLFLQGTPKH [Peptide 89.0132] | > 20 | – | > 20 | – | 7.81 | > 20 | > 20 | > 20 | 1.3 | > 20 | 0.0087 | – |
| PPLLITTNINPMLDA [Peptide 89.0139] | 1.22 | > 20 | 7.54 | 0.623 | 3.39 | 4.78 | – | – | > 20 | 7.65 | – | 7.37 |
| CC(C)[C@H](NC(=O)[C@H](CO)NC(=O)[C@@H](NC(=O)[C@@H](N)[C@@H](C)O)C(C)C)C(=O)NCC(=O)N[C@H](C(=O)N[C@@H](C)C(=O)N[C@@H](CCCCN)C(=O)N[C@H](C(=O)N[C@@H](Cc1ccc(O)cc1)C(=O)NCC(=O)N[C@@H](CCC(N)=O)C(=O)N[C@H](C(=O)N[C@@H](CO)C(=O)N[C@@H](C)C(=O)O)[C@@H](C)O)[C@@H](C)O)[C@@H](C)O [Peptide 89.0163] | > 20 | > 20 | > 20 | – | 2.33 | 8.71 | > 20 | > 20 | > 20 | > 20 | 0.229 | – |
| PMCMMIEPPKLRSTA [Peptide 90.0034] | 0.037 | 11.3 | 0.369 | 0.366 | 2.11 | 3.34 | 0.271 | 2.04 | 1.58 | 4.33 | – | – |
| FIHFIQGAVISFVNS [Peptide 89.0036] | – | 0.137 | – | – | 1.22 | 0.677 | 6.02 | 4.33 | 0.097 | 3.42 | 0.13 | – |
| DCKWGVLILALLRYK [Peptide 89.0026] | – | 1 | 7.36 | 1.09 | 1.34 | 0.41 | 1.12 | 0.389 | 0.786 | 1.8 | – | – |
| NTEVETQQMVQQVES [Peptide 89.0059] | > 20 | > 20 | > 20 | > 20 | > 20 | > 20 | > 20 | > 20 | – | > 20 | – | – |
| LMQLKCPPLLITSNI [Peptide 89.0057] | 0.214 | 5.08 | – | – | 1.48 | 0.16 | > 20 | – | 0.123 | 2.8 | 0.068 | – |
| FAGIVTKLPTANNTT [Peptide 89.0175] | – | > 20 | 1.28 | – | 5.87 | 2.55 | – | 7.63 | – | 1.56 | 1.2 | – |
| PEWIEQQTVLQHSFD [Peptide 89.0105] | – | – | 6.21 | – | 5.59 | 11.3 | – | – | 1.31 | – | 0.98 | – |
| WCIIGMGVTPSVAEG [Peptide 89.0097] | > 20 | > 20 | 3.55 | > 20 | > 20 | > 20 | > 20 | > 20 | 2.09 | > 20 | – | – |
| TPEWIEQQTVLQHSF [Peptide 89.0104] | 0.949 | > 20 | > 20 | – | 2.88 | 13 | 5.46 | > 20 | > 20 | 14.1 | > 20 | – |
